This note sets out measurements from the supplement of paper PMC10011410.

The test system of one experiment is U-2 OS. Briefly: AUC of culture confluence over time (live-cell imaging) (AUC (confluence % x time)); higher = more confluent culture (less growth inhibition). The following applies: 2.5 µM. In a few lines: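 Reported values are areas under curves of confluence against time, recorded by live-cell imaging of U-2 OS cells. Cells in F-12K medium with 10% FBS, seeded at 750 per well in 384-well plates, were treated by pin tool 24 h later, most compounds at 20, 10 and 5 μM with 0.2% DMSO. Imaging at 37 °C took place every 4 h for up to 60 h.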
With `C[C@@H]1C[C@H]2O[C@@H]2/C=C\C=C\C(=O)Cc2c(Cl)c(O)cc(O)c2C(=O)O1`, the “AUC of culture confluence over time” value is 46.8.

Staying with this experiment, now noted: 5 µM.
As for `O=C(Nc1nc(-c2ccccc2)ns1)c1cccs1`, the “AUC of culture confluence over time” value turned out to be 42.6.
With `Cc1cc2c(C(C)C)c(O)c(O)c(C=O)c2c(O)c1-c1c(C)cc2c(C(C)C)c(O)c(O)c(C=O)c2c1O`, the “AUC of culture confluence over time” value was 48.5.
The same measure, in the same setting: as for `C=CC(=O)Nc1cc(Nc2nccc(-c3cn(C)c4ccccc34)n2)c(OC)cc1N(C)CCN(C)C`, the figure is 39; as for `O=S1(=O)C=Cc2ccccc21`, 53.2.
For the compound `CC(=O)c1c(O)c(C)c(O)c(Cc2c(O)c3c(c(C(=O)C=Cc4ccccc4)c2O)OC(C)(C)C=C3)c1O`, the “AUC of culture confluence over time” value was 39.9.
On the same count and under the same terms, as for `CC1(C)CC[C@]2(C(=O)n3ccnc3)CC[C@]3(C)[C@H](C(=O)C=C4[C@@]5(C)C=C(C#N)C(=O)C(C)(C)[C@@H]5CC[C@]43C)[C@@H]2C1`, the figure is 16; as for `COC[C@H]1OC(=O)c2coc3c2[C@@]1(C)C1=C(C3=O)[C@@H]2CCC(=O)[C@@]2(C)C[C@H]1OC(C)=O`, 49.5.
Turning to `c1ccc(Nc2nc(-c3ccccc3)ns2)cc1`, the “AUC of culture confluence over time” value amounted to 49.5.
On the same count and under the same terms, the value for `C=CC(=O)Nc1cccc(Oc2nc(Nc3ccc(N4CCN(C)CC4)cc3OC)ncc2Cl)c1` was 42.4; that for `Cn1nnnc1SC1=CS(=O)(=O)c2ccccc21` was 19.6.
Same read-out and setting: the value for `CCC(=O)N1CCN(c2ccc(-n3c(=O)ccc4cnc5ccc(-c6cnc7ccccc7c6)cc5c43)cc2C(F)(F)F)CC1` was 26.9; that for `O=C1CC(Nc2ccccc2)C(=O)N1Cc1ccccc1` (stereo not drawn) was 48; that for `C[C@@H]1C[C@H]2O[C@@H]2/C=C\C=C\C(=O)Cc2c(Cl)c(O)cc(O)c2C(=O)O1` was 19.9.
The same measure, in the same setting: as for `C=CC(=O)Nc1cc2c(Nc3ccc(F)c(Cl)c3)ncnc2cc1OCCCN1CCOCC1`, the figure is 19.1; as for `O=C1/C(=C/c2ccc(O)c(Br)c2)CCC/C1=C\c1ccc(O)c(Br)c1`, 49.5; as for `CNC(=O)Nc1ccc2c(c1)CC[C@@]21OC(=O)N(CC(=O)N(Cc2ccc(F)cc2)[C@@H](C)C(F)(F)F)C1=O`, 44.7.
Take `O=C(O[C@@H]1Cc2c(O)cc(O)cc2O[C@@H]1c1cc(O)c(O)c(O)c1)c1cc(O)c(O)c(O)c1`: the “AUC of culture confluence over time” value is 48.7.
As for `O=S1(=O)C=C(Sc2nn(-c3ccccc3)c(=S)s2)c2ccccc21`, the “AUC of culture confluence over time” value amounted to 17.7.
Consider `C=CC(=O)Nc1ccc(CN2C(=O)N(c3cc(OC)cc(OC)c3)Cc3cnc(Nc4ccc(N5CCN(C)CC5)cc4)nc32)cc1`, for which the “AUC of culture confluence over time” value amounted to 44.2.
The same measure, in the same setting: as for `CCCCCCCCCCCCCCCc1cccc(O)c1C(=O)O`, the figure is 42.7; as for `Cl.Cl.O=C(O)Cn1nnc(-c2ccc(CN(CCCCOc3ccc(CN4CCCC4)cc3)CCc3ccccc3)cc2)n1`, 48.1.
The same measure, in the same setting: as for `COc1cc2ncnc(Nc3ccc(F)c(Cl)c3)c2cc1NC(=O)/C=C/CN1CCCCC1`, the figure is 26.9; as for `Cc1cc(-c2ccccc2)cc(C(=O)NNS(=O)(=O)c2ccccc2)c1F`, 52.8; as for `Cn1c(=O)n(-c2ccc(C(C)(C)C#N)cc2)c2c3cc(-c4cnc5ccccc5c4)ccc3ncc21`, 31.4.
As to `CCCCCC[C@H]1C(=O)O[C@H](C)[C@H](NC(=O)c2cccc(NC=O)c2O)C(=O)O[C@@H](C)[C@@H]1OC(=O)CC(C)C`, the “AUC of culture confluence over time” value came to 38.
Same read-out and setting: the value for `COC(=O)[C@]1(C)CC[C@]2(C)CC[C@]3(C)C4=CC=C5C(=CC(=O)C(O)=C5C)[C@]4(C)CC[C@@]3(C)[C@@H]2C1` was 11.3.

Still in this experiment, the particulars now being: 10 µM.
Regarding `O=C(Nc1nc(-c2ccccc2)ns1)c1cccs1`, the “AUC of culture confluence over time” value amounted to 48.1.
The same measure, in the same setting: the value for `Cc1cc2c(C(C)C)c(O)c(O)c(C=O)c2c(O)c1-c1c(C)cc2c(C(C)C)c(O)c(O)c(C=O)c2c1O` was 36.2.
As to `C=CC(=O)Nc1cc(Nc2nccc(-c3cn(C)c4ccccc34)n2)c(OC)cc1N(C)CCN(C)C`, the “AUC of culture confluence over time” value came to 28.4.
Consider `O=S1(=O)C=Cc2ccccc21`, for which the “AUC of culture confluence over time” value turned out to be 50.3.
Still for that read-out and setting: the value for `CC(=O)c1c(O)c(C)c(O)c(Cc2c(O)c3c(c(C(=O)C=Cc4ccccc4)c2O)OC(C)(C)C=C3)c1O` was 35.4.
On the same count and under the same terms, as for `CC1(C)CC[C@]2(C(=O)n3ccnc3)CC[C@]3(C)[C@H](C(=O)C=C4[C@@]5(C)C=C(C#N)C(=O)C(C)(C)[C@@H]5CC[C@]43C)[C@@H]2C1`, the figure is 14.8; as for `COC[C@H]1OC(=O)c2coc3c2[C@@]1(C)C1=C(C3=O)[C@@H]2CCC(=O)[C@@]2(C)C[C@H]1OC(C)=O`, 38.5; as for `c1ccc(Nc2nc(-c3ccccc3)ns2)cc1`, 46.8.
Regarding `C=CC(=O)Nc1cccc(Oc2nc(Nc3ccc(N4CCN(C)CC4)cc3OC)ncc2Cl)c1`, the “AUC of culture confluence over time” value stood at 21.9.
Take `Cn1nnnc1SC1=CS(=O)(=O)c2ccccc21`: the “AUC of culture confluence over time” value was 16.
Still for that read-out and setting: the value for `CCC(=O)N1CCN(c2ccc(-n3c(=O)ccc4cnc5ccc(-c6cnc7ccccc7c6)cc5c43)cc2C(F)(F)F)CC1` was 27.2.
On to `O=C1CC(Nc2ccccc2)C(=O)N1Cc1ccccc1` (stereo not drawn), for which the “AUC of culture confluence over time” value stood at 38.3.
Same read-out and setting: as for `C[C@@H]1C[C@H]2O[C@@H]2/C=C\C=C\C(=O)Cc2c(Cl)c(O)cc(O)c2C(=O)O1`, the figure is 21.3; as for `C=CC(=O)Nc1cc2c(Nc3ccc(F)c(Cl)c3)ncnc2cc1OCCCN1CCOCC1`, 13.7.
The same measure, in the same setting: as for `CNC(=O)Nc1ccc2c(c1)CC[C@@]21OC(=O)N(CC(=O)N(Cc2ccc(F)cc2)[C@@H](C)C(F)(F)F)C1=O`, the figure is 44.
Same read-out and setting: as for `O=C(O[C@@H]1Cc2c(O)cc(O)cc2O[C@@H]1c1cc(O)c(O)c(O)c1)c1cc(O)c(O)c(O)c1`, the figure is 49.6.
